Measured values from ChEMBL document CHEMBL1132884, “Carbonic anhydrase inhibitors: synthesis of N-morpholylthiocarbonylsulfenylamino aromatic/heterocyclic sulfonamides and their interaction with isozymes I, II and IV” (Bioorg Med Chem Lett, 2000).
Blank lines part the entries; values can stand above or below the molecule they belong to.

Columns and labels:
Carbonic anhydrase 1 = Carbonic anhydrase 1 (Homo sapiens, UniProt P00915)
Description: Inhibition of human carbonic anhydrase I (CAI)

Carbonic anhydrase 2 = Carbonic anhydrase 2 (Homo sapiens, UniProt P00918)
Description: Inhibition of human carbonic anhydrase II (hCA II)

Carbonic anhydrase 4 = molecular target: T1, Carbonic anhydrase 4 (Bos taurus, UniProt Q95323)
T1 sequence (Q95323 whole entry): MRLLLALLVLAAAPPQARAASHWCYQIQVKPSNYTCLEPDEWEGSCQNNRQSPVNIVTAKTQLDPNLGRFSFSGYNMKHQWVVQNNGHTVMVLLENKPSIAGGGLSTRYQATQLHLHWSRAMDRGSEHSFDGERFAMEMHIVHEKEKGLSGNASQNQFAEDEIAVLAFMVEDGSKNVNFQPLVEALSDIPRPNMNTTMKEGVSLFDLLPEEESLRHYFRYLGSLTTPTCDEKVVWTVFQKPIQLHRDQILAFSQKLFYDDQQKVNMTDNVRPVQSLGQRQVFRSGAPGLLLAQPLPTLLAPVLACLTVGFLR
Description: Inhibition of bovine carbonic anhydrase IV from bovine lung microsomes

MCF7 = assay: Compound was tested in vitro for its antitumor activity against breast cancer cell line MCF-7 (50% growth inhibition of tumor cells after 48 hr exposure ); type: functional; details: Homo sapiens, MCF7, 48 h
MDA-N = assay: Compound was tested in vitro for its antitumor activity against breast cancer cell line MDA-N (50% growth inhibition of tumor cells after 48 hr exposure ); type: functional; details: Homo sapiens
SF-295 = assay: Compound was tested in vitro for its antitumor activity against CNS cancer cell line SF-295 (50% growth inhibition of tumor cells after 48 hr exposure ); type: functional; details: Homo sapiens, SF-295, 48 h
SF-268 = assay: Compound was tested in vitro for its antitumor activity against CNS cancer cell line SF-268 (50% growth inhibition of tumor cells after 48 hr exposure ); type: functional; details: Homo sapiens, SF-268, 48 h
COLO 205 = assay: Compound was tested in vitro for its antitumor activity against colon cancer cell line COLO-205 (50% growth inhibition of tumor cells after 48 hr exposure ); type: functional; details: Homo sapiens, COLO 205, 48 h
HOP-62 = assay: Compound was tested in vitro for its antitumor activity against non-small cell lung cancer cell line HOP-62(50% growth inhibition of tumor cells after 48 hr exposure ); type: functional; details: Homo sapiens, HOP-62, 48 h
NCI-H522 = assay: Compound was tested in vitro for its antitumor activity against non-small cell lung cancer cell line NCI-H522 (50% growth inhibition of tumor cells after 48 hr exposure ); type: functional; details: Homo sapiens, NCI-H522, 48 h
HL-60 = assay: Compound was tested in vitro for its antitumor activity against leukemia cell line HL-60(50% growth inhibition of tumor cells after 48 hr exposure ); type: functional; details: Homo sapiens, HL-60, 48 h
MOLT-4 = assay: Compound was tested in vitro for its antitumor activity against leukemia cell line MOLT-4 (50% growth inhibition of tumor cells after 48 hr exposure ); type: functional; details: Homo sapiens, MOLT-4, 48 h
LOX IMVI = assay: Compound was tested in vitro for its antitumor activity against melanoma cell line LOX IMVI (50% growth inhibition of tumor cells after 48 hr exposure ); type: functional; details: Homo sapiens
M14 = assay: Compound was tested in vitro for its antitumor activity against melanoma cell line M14 (50% growth inhibition of tumor cells after 48 hr exposure ); type: functional; details: Homo sapiens, M14, 48 h
SK-MEL-2 = assay: Compound was tested in vitro for its antitumor activity against melanoma cell line SK-MEL-2 (50% growth inhibition of tumor cells after 48 hr exposure ); type: functional; details: Homo sapiens, SK-MEL-2, 48 h
IGROV-1 = assay: Compound was tested in vitro for its antitumor activity against ovarian cancer cell line IGROVI (50% growth inhibition of tumor cells after 48 hr exposure ); type: functional; details: Homo sapiens, IGROV-1, 48 h
OVCAR-4 = assay: Compound was tested in vitro for its antitumor activity against ovarian cancer cell line OVCAR-4 (50% growth inhibition of tumor cells after 48 hr exposure ); type: functional; details: Homo sapiens, OVCAR-4, 48 h
DU-145 = assay: Compound was tested in vitro for its antitumor activity against prostate cancer cell line DU-145 (50% growth inhibition of tumor cells after 48 hr exposure ); type: functional; details: Homo sapiens, DU-145, 48 h
786-0 = assay: Compound was tested in vitro for its antitumor activity against renal cancer cell line […] (50% growth inhibition of tumor cells after 48 hr exposure ); type: functional; details: Homo sapiens, 786-0, 48 h
ACHN = assay: Compound was tested in vitro for its antitumor activity against renal cancer cell line ACHN (50% growth inhibition of tumor cells after 48 hr exposure ); type: functional; details: Homo sapiens
CAKI-1 = assay: Compound was tested in vitro for its antitumor activity against renal cancer cell line CAKI-I (50% growth inhibition of tumor cells after 48 hr exposure ); type: functional; details: Homo sapiens, CAKI-1, 48 h
A549 = assay: Compound was tested in vitro for its antitumor activity against non-small cell lung cancer cell line A549/ATCC(50% growth inhibition of tumor cells after 48 hr exposure ); type: functional; details: Homo sapiens, A549, 48 h
PC-3 = assay: Compound was tested in vitro for its antitumor activity against prostate cancer cell line PC-3 (50% growth inhibition of tumor cells after 48 hr exposure ); type: functional; details: Homo sapiens, PC-3, 48 h
HCT-15 = assay: Compound was tested in vitro for its antitumor activity against colon cancer cell line HCT-15 (50% growth inhibition of tumor cells after 48 hr exposure ); type: functional; details: Homo sapiens, HCT-15, 48 h
SR = assay: Compound was tested in vitro for its antitumor activity against leukemia cell line SR (50% growth inhibition of tumor cells after 48 hr exposure ); type: functional; details: Homo sapiens

Sequence of Carbonic anhydrase 1 (P00915 whole entry): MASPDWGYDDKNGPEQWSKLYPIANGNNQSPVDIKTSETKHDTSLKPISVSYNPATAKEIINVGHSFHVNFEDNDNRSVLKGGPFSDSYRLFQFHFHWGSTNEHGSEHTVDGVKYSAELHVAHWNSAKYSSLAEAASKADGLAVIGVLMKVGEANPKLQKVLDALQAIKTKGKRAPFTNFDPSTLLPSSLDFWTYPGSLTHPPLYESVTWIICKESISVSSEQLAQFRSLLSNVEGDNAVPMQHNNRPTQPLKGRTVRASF

- Ki (Carbonic anhydrase 1): 560 nM
- Ki (Carbonic anhydrase 2): 15 nM
- Ki (Carbonic anhydrase 4): 90 nM
SMILES: NS(=O)(=O)c1cc(S(N)(=O)=O)c(NSC(=S)N2CCOCC2)cc1Cl

- Ki (Carbonic anhydrase 1): 24000 nM
- Ki (Carbonic anhydrase 2): 790 nM
- Ki (Carbonic anhydrase 4): 650 nM
SMILES: NS(=O)(=O)c1ccc(NNSC(=S)N2CCOCC2)cc1

- Ki (Carbonic anhydrase 1): 31 nM
- Ki (Carbonic anhydrase 2): 7 nM
- Ki (Carbonic anhydrase 4): 10 nM
SMILES: NS(=O)(=O)c1cccc(NS(=O)(=O)c2ccc(NSC(=S)N3CCOCC3)cc2)c1

- Ki (Carbonic anhydrase 1): 15000 nM
- Ki (Carbonic anhydrase 2): 48 nM
- Ki (Carbonic anhydrase 4): 140 nM
SMILES: CCN(C)C(=S)SNc1ccc(S(N)(=O)=O)cc1

- Ki (Carbonic anhydrase 1): 760 nM
- Ki (Carbonic anhydrase 2): 33 nM
- Ki (Carbonic anhydrase 4): 120 nM
SMILES: NS(=O)(=O)c1ccc(NSC(=S)N2CCOCC2)c(F)c1

- Ki (Carbonic anhydrase 1): 800 nM
- Ki (Carbonic anhydrase 2): 40 nM
- Ki (Carbonic anhydrase 4): 94 nM
SMILES: NS(=O)(=O)c1ccc(NSC(=S)N2CCOCC2)c(Cl)c1

- Ki (Carbonic anhydrase 1): 11500 nM
- Ki (Carbonic anhydrase 2): 780 nM
- Ki (Carbonic anhydrase 4): 500 nM
SMILES: NS(=O)(=O)c1ccccc1NSC(=S)N1CCOCC1

- Ki (Carbonic anhydrase 1): 10000 nM
- Ki (Carbonic anhydrase 2): 150 nM
- Ki (Carbonic anhydrase 4): 290 nM
SMILES: NS(=O)(=O)c1cccc(NSC(=S)N2CCOCC2)c1

- Ki (Carbonic anhydrase 1): 630 nM
- Ki (Carbonic anhydrase 2): 11 nM
- Ki (Carbonic anhydrase 4): 30 nM
SMILES: CCN(C)C(=S)SNCCc1ccc(S(N)(=O)=O)cc1

- Ki (Carbonic anhydrase 1): 950 nM
- Ki (Carbonic anhydrase 2): 13 nM
- Ki (Carbonic anhydrase 4): 41 nM
SMILES: CCN(C)C(=S)SNCc1ccc(S(N)(=O)=O)cc1

- Ki (Carbonic anhydrase 1): 500 nM
- Ki (Carbonic anhydrase 2): 18 nM
- Ki (Carbonic anhydrase 4): 49 nM
SMILES: NS(=O)(=O)c1cc(S(N)(=O)=O)c(NSC(=S)N2CCOCC2)c(Cl)c1Cl

- Ki (Carbonic anhydrase 1): 200 nM
- Ki (Carbonic anhydrase 2): 6 nM
- Ki (Carbonic anhydrase 4): 26 nM
SMILES: Cn1nc(S(N)(=O)=O)s/c1=N/SC(=S)N1CCOCC1

- Ki (Carbonic anhydrase 1): 3000 nM
- Ki (Carbonic anhydrase 2): 55 nM
- Ki (Carbonic anhydrase 4): 170 nM
SMILES: NS(=O)(=O)c1ccc(NSC(=S)N2CCOCC2)c(I)c1

- Ki (Carbonic anhydrase 1): 2400 nM
- Ki (Carbonic anhydrase 2): 48 nM
- Ki (Carbonic anhydrase 4): 96 nM
SMILES: NS(=O)(=O)c1ccc(NSC(=S)N2CCOCC2)c(Br)c1

Continued, molecule first:

SMILES: NS(=O)(=O)c1nnc(NS(=O)(=O)c2ccc(NSC(=S)N3CCOCC3)cc2)s1
- Ki (Carbonic anhydrase 1): 5 nM
- Ki (Carbonic anhydrase 2): 1.4 nM
- Ki (Carbonic anhydrase 4): 4 nM

SMILES: NS(=O)(=O)c1nnc(NC(=O)CCNSC(=S)N2CCOCC2)s1
- Ki (Carbonic anhydrase 1): 105 nM
- Ki (Carbonic anhydrase 2): 2 nM
- Ki (Carbonic anhydrase 4): 21 nM

SMILES: NS(=O)(=O)c1ccc(NSC(=S)N2CCOCC2)cc1
- GI50 (MCF7): 33 nM
- GI50 (MDA-N): 61000 nM
- GI50 (SF-295): 44000 nM
- GI50 (SF-268): 58000 nM
- GI50 (COLO 205): 32000 nM
- GI50 (HOP-62): 78000 nM
- GI50 (NCI-H522): 420 nM
- GI50 (HL-60): 86 nM
- GI50 (MOLT-4): 10000 nM
- GI50 (LOX IMVI): 34000 nM
- GI50 (M14): 14000 nM
- GI50 (SK-MEL-2): 31000 nM
- GI50 (IGROV-1): 70000 nM
- GI50 (OVCAR-4): > 100000 nM
- GI50 (DU-145): 80000 nM
- GI50 (786-0): 12000 nM
- GI50 (ACHN): 31000 nM
- GI50 (CAKI-1): 30000 nM
- GI50 (A549): 46000 nM
- GI50 (PC-3): 24000 nM
- GI50 (HCT-15): 68000 nM
- GI50 (SR): 200 nM
- Ki (Carbonic anhydrase 1): 9000 nM
- Ki (Carbonic anhydrase 2): 36 nM
- Ki (Carbonic anhydrase 4): 100 nM

SMILES: NS(=O)(=O)c1ccc(CCNSC(=S)N2CCOCC2)cc1
- GI50 (MCF7): 26 nM
- GI50 (MDA-N): 13000 nM
- GI50 (SF-295): > 100000 nM
- GI50 (SF-268): 90000 nM
- GI50 (COLO 205): 21000 nM
- GI50 (HOP-62): 62000 nM
- GI50 (NCI-H522): 75 nM
- GI50 (HL-60): 70 nM
- GI50 (MOLT-4): 54000 nM
- GI50 (LOX IMVI): 5000 nM
- GI50 (M14): 8000 nM
- GI50 (SK-MEL-2): 5000 nM
- GI50 (IGROV-1): 90 nM
- GI50 (OVCAR-4): 61000 nM
- GI50 (DU-145): 10000 nM
- GI50 (786-0): 11000 nM
- GI50 (ACHN): 15000 nM
- GI50 (CAKI-1): 9000 nM
- GI50 (A549): 11000 nM
- GI50 (PC-3): 11000 nM
- GI50 (HCT-15): > 100000 nM
- GI50 (SR): < 10 nM
- Ki (Carbonic anhydrase 1): 360 nM
- Ki (Carbonic anhydrase 2): 8 nM
- Ki (Carbonic anhydrase 4): 24 nM

SMILES: NS(=O)(=O)c1ccc(CNSC(=S)N2CCOCC2)cc1
- GI50 (MCF7): 30 nM
- GI50 (MDA-N): 15000 nM
- GI50 (SF-295): 5400 nM
- GI50 (SF-268): 16000 nM
- GI50 (COLO 205): 30000 nM
- GI50 (HOP-62): 15000 nM
- GI50 (NCI-H522): 19 nM
- GI50 (HL-60): 90 nM
- GI50 (MOLT-4): 9000 nM
- GI50 (LOX IMVI): 12000 nM
- GI50 (M14): 10000 nM
- GI50 (SK-MEL-2): 12000 nM
- GI50 (IGROV-1): 52000 nM
- GI50 (OVCAR-4): > 100000 nM
- GI50 (DU-145): 13000 nM
- GI50 (786-0): 10000 nM
- GI50 (ACHN): 15000 nM
- GI50 (CAKI-1): 17000 nM
- GI50 (A549): 38000 nM
- GI50 (PC-3): 12000 nM
- GI50 (HCT-15): 24000 nM
- GI50 (SR): 150 nM
- Ki (Carbonic anhydrase 1): 620 nM
- Ki (Carbonic anhydrase 2): 10 nM
- Ki (Carbonic anhydrase 4): 35 nM

SMILES: NS(=O)(=O)c1nnc(NSC(=S)N2CCOCC2)s1
- Ki (Carbonic anhydrase 1): 240 nM
- Ki (Carbonic anhydrase 2): 6 nM
- Ki (Carbonic anhydrase 4): 25 nM

SMILES: Cn1nc(S(N)(=O)=O)s/c1=N/S(=O)(=O)c1ccc(NSC(=S)N2CCOCC2)cc1
- Ki (Carbonic anhydrase 1): 2 nM
- Ki (Carbonic anhydrase 2): 0.5 nM
- Ki (Carbonic anhydrase 4): 1.3 nM

SMILES: NS(=O)(=O)c1ccc(NS(=O)(=O)c2ccc(NSC(=S)N3CCOCC3)cc2)cc1
- Ki (Carbonic anhydrase 1): 30 nM
- Ki (Carbonic anhydrase 2): 3 nM
- Ki (Carbonic anhydrase 4): 10 nM

SMILES: CCN(SC(=S)N1CCOCC1)C1CC(C)S(=O)(=O)c2sc(S(N)(=O)=O)cc21 (stereo not given)
- Ki (Carbonic anhydrase 1): > 50000 nM
- Ki (Carbonic anhydrase 2): 6 nM
- Ki (Carbonic anhydrase 4): 22 nM
